Assays:
lung = assay: LNP biodistribution screen, barcode fold above input (FAI) in lung; type: in vivo; conditions: mice, tissues 4 hours post-dose
Method: (§1) Male and female mice aged approximately 8-12 weeks were used for studies described by the present Example. Each mouse was temporarily restrained and pooled LNP was administered IV via tail vein injection in up to five animals per experiment. Age-matched mice was also used to administer vehicle (1×TBS) via tail vein injection in up to three animals per experiment. Additional routes of administration can also be conducted including intracerebral ventricular (ICV), intracisterna manga (ICM), intrathecal (IT), intramuscular (IM), nebulization, intranasal (IN), subcutaneous (SC), intraarticular, and intradermal (ID). At 4 hours post-dose, tissues including liver, spleen, bone marrow, testes, gastrocnemius, quadricep, lung, heart, kidney, and pancreas may be collected for analysis.
(§2) Liver, kidney, lung, and muscle (e.g. skeletal and cardiac) tissues may be mechanically, and then enzymatically digested using a mixture of proteinases, then passed through a 70 μm filter to generate single cell suspensions. Spleen tissues were mechanically digested to generate single cell suspensions. Tissues were treated with ACK buffer to lyse red blood cells, and then stained with fluorescently-labeled antibodies for flow cytometry and fluorescence-activated cell sorting (FACS). Commercially available antibodies were used in the present example. Using a BD FACSMelody (Becton Dickinson), samples were acquired via flow cytometry to generate gates prior to sorting. In general, the gating structure was size→singlet cells→live cells→cells of interest. T cells were defined as CD45+CD3+, monocytes are defined as CD45+CD11b+, and B cells are defined as CD45+CD19+. Endothelial cells were defined as CD31+, monocytes and Kupffer cells as CD45+CD11b+ and hepatocytes and myocytes were defined as CD31−/CD45− in the liver and muscle, respectively. Tissues from vehicle-dosed mice were used to set the gates for sorting.
(§3) RNA from tissues were extracted using the Reliaprep RNA extraction kit, and libraries were prepared using the RNAseq kit, and sequenced on either a MiSeq or NextSeq500.
(§4) To screen for preferential LNP delivery to a target tissues, the relative abundance of each barcode in one or more target tissues was measured and compared to the relative abundance of each barcode to its corresponding relative input abundance to determine fold above input (FAI) for each barcode. If the FAI of a barcode in a target tissue is above a threshold or above the FAI of a different LNP in the same tissue, the LNP can be identified as preferentially delivering to the target tissue.
(§5) The FAI is the normalized relative abundance of a barcode in a selected sample as compared to its frequency in the input. The FAI of a barcode indicates how a LNP's abundance changes relative to the rest of the LNP pool. The FAI value of the barcode was calculated by normalizing the relative abundance in the barcode sequence counts in the isolated samples to its relative abundance in the administration input. […] The FAI then indicates the performance of an LNP relative to the input LNP composition.
(§6) Each table describes data obtained from one screening experiment.

liver = assay: LNP biodistribution screen, barcode fold above input (FAI) in liver; type: in vivo; conditions: mice, tissues 4 hours post-dose
Method: as §1
Liver, kidney, lung, and muscle (e.g. skeletal and cardiac) tissues may be mechanically, and then enzymatically digested using a mixture of proteinases, then passed through a 70 μm filter to generate single cell suspensions. Spleen tissues were mechanically digested to generate single cell suspensions. Tissues were treated with ACK buffer to lyse red blood cells, and then stained with fluorescently-labeled antibodies for flow cytometry and fluorescence-activated cell sorting (FACS). Commercially available antibodies were used in the present example. Using a BD FACSMelody (Becton Dickinson), samples were acquired via flow cytometry to generate gates prior to sorting. […]
To screen for preferential LNP delivery to a target tissues, the relative abundance of each barcode in one or more target tissues was measured and compared to the relative abundance of each barcode to its corresponding relative input abundance to determine fold above input (FAI) for each barcode. […]
The FAI is the normalized relative abundance of a barcode in a selected sample as compared to its frequency in the input. […] The FAI value of the barcode was calculated by normalizing the relative abundance in the barcode sequence counts in the isolated samples to its relative abundance in the administration input. […]

spleen = assay: LNP biodistribution screen, barcode fold above input (FAI) in spleen; type: in vivo; conditions: mice, tissues 4 hours post-dose
Method: as §1, §2, §3, §4, §5, §6

[1] = LNP hydrodynamic diameter and polydispersity index by dynamic light scattering (DLS); type: physicochemical; conditions: LNP of 47.5% Ionizable Lipid:40% cholesterol:2.5% PEG-2000 DMG:10% DPSC, N/P ratio 4-8
Method: (§7) LNPs were prepared with 47.5% Ionizable Lipid (e.g., a compound provided herein):40% cholesterol:2.5% PEG-2000 DMG:10% DPSC and an N/P ratio range of 4-8. LNPs were formed by microfluidic mixing of the lipid and NA solutions using a Precision Nanosystems NanoAssemblr Spark or Benchtop series Instruments, according to the manufacturer's protocol. A ratio of aqueous to organic solvent of approximately 2:1 or 3:1 was maintained during mixing using differential flow rates. After mixing, LNPs were collected, diluted in phosphate buffer saline (PBS) or Tris-buffered saline (TBS) (approximately 1:1 v/v). Further buffer exchange was conducted using dialysis in PBS or TBS at 4° C. for 4 to 24 hours against a 20 kDa filter. After this initial dialysis, each individual LNP preparation was characterized via dynamic light scattering (DLS) to measure the size (e.g., diameter) and polydispersity. LNPs falling within specific diameter and polydispersity ranges were pooled, and further dialyzed against PBS or TBS at 4° C. for 1 to 4 hours against a 100 kDa dialysis cassette. After the second dialysis, LNPs were sterile filtered using 0.22 μm filter and stored at 4° C. for further use.
LNP hydrodynamic diameter and polydispersity index (PDI) were measured using high throughput dynamic light scattering (DLS) (Stunner, Unchained Labs). LNPs were diluted 1×TBS or PBS to an appropriate concentration and analyzed.

[2] = RNA encapsulation efficiency of LNPs by Ribogreen assay; type: physicochemical; conditions: LNP of 47.5% Ionizable Lipid:40% cholesterol:2.5% PEG-2000 DMG:10% DPSC, N/P ratio 4-8
Method: as §7
RNA concentration and encapsulation efficiency were determined by Ribogreen assay (BioTek Synergy LX plate reader).

ALAS1 target site = assay: Base editing in liver by LNP carrying adenine base editor mRNA and sgRNA, targeted deep sequencing; type: in vivo; conditions: Balb/C mice, tail vein, 0.15 mg/kg total RNA (ABE mRNA:sgRNA 1:1), four to six days post-dose
Method: Exemplary LNP preparations were selected to determine each preparation's ability to perform base editing in a Balb/C mouse model as described herein.
Lipid nanoparticle components were dissolved in 100% ethanol at specified lipid component molar ratios. mRNA encoding an adenine base editor and a chemically-modified sgRNA was dissolved at a mass ratio of 1:1 in 50 mM citrate, pH 4.0, resulting in a concentration of NA cargo of approximately 0.1 mg/mL.
LNP preparations were formulated with molar ratios of 47.5% Ionizable Lipid:40% Cholesterol:2.5% PEG2000-DMG:10% DSPC total lipid to NA mass ratio of 6 to 12. […]
A 3:1 ratio of aqueous to organic solvent was maintained during mixing using differential flow rates. […] After this initial dialysis, each individual LNP preparation was characterized via dynamic light scattering (DLS) to measure size and polydispersity. pKa of a subpopulation of LNP preparations was measured via TNS assay. […]
Age-matched mice were also used to administer vehicle (1×TBS) via tail vein injection as a control. […] Base editing is determined by performing targeted deep sequencing analysis at the ALAS1 target site using extracted genomic DNA. […] Library size and concentration was confirmed by Fragment Analyzer (Agilent) and analyzed for […] using an Illumina HiSeq.

[3] = screening experiment of Table 3, pooled LNP IV tail vein
[4] = screening experiment of Table 5, pooled LNP IV tail vein
[5] = screening experiment of Table 4, pooled LNP IV tail vein

Compound | FAI (Lung) (lung; [3]) | FAI (Lung) (lung; [4]) | FAI (Liver) (liver; [3]) | FAI (Spleen) (spleen; [3]) | FAI (Spleen) (spleen; [4]) | Mean Diameter (nm) [1] [nm] | Mean PDI [1] | Mean Encapsulation Efficiency (%) [2] [%] | base editing observed in liver (ALAS1 target site) [%] | FAI (Lung) (lung; [5]) | FAI (Liver) (liver; [5]) | FAI (Spleen) (spleen; [5])
5-((4,4-bis(((Z)-oct-5-en-1-yl)oxy)butanoyl)oxy)-3-((4-(pyrrolidin-1-yl)butanoyl)oxy)pentyl (9Z,12Z)-octadeca-9,12-dienoate [Example 7-5] | 1.30 | 0.83 | 2.28 | 1.29 | 1.33 | 93.1 | 0.13 | 86.8 | – | – | – | –
CC/C=C\CCCCOC(CCC(=O)OCCCC(CCCOC(=O)CCCCCCC/C=C\C/C=C\CCCCC)OC(=O)OCC1CCCN(CC)C1)OCCCC/C=C\CC (stereo not drawn) [Example 7-21, 7-((4,4-bis(((Z)-oct-5-en-1-yl)oxy)butanoyl)oxy)-4-((((1-ethylpiperidin-3-yl)methoxy)carbonyl)oxy)heptyl (9Z,12Z)-octadeca-9,12-dienoate] | – | – | – | – | – | 90.0 | 0.11 | 86.4 | 34.1 | – | – | –
CC/C=C\CCCCOC(CCC(=O)OCCCCC(CCCCOC(=O)CCCCCCC/C=C\C/C=C\CCCCC)OC(=O)OCC1CCCN(CC)C1)OCCCC/C=C\CC (stereo not drawn) [Example 7-41, 9-((4,4-bis(((Z)-oct-5-en-1-yl)oxy)butanoyl)oxy)-5-((((1-ethylpiperidin-3-yl)methoxy)carbonyl)oxy)nonyl (9Z,12Z)-octadeca-9,12-dienoate] | – | – | – | – | – | 80.3 | 0.11 | 84.3 | 1.7 | – | – | –
CCCCC/C=C\C/C=C\CCCCCCCCC(CCCCCCCC/C=C\C/C=C\CCCCC)OC(=O)CCCN(C)C [MC3, (6Z,9Z,28Z,31Z)-heptatriaconta-6,9,28,31-tetraen-19-yl 4-(dimethylamino) butanoate] | 1.09 | 0.50 | 0.80 | 1.32 | 0.39 | – | – | – | – | 0.65 | 0.31 | 0.45
